# From US4713247A, “Long-acting formulation of cefaclor” (priority 1983, dated 1987)
# “Also recorded” adds a separate entry of the source. Read-outs that look alike come from different tables or passages of the source.
# Legend:
# Escherichia coli No. 29 = experiment: Minimum inhibitory concentration, Escherichia coli No. 29 (Table 1); format: cell-based; conditions: dilution method, Chemotherapy 29(1), 76-79 (1981)
# Protocol: (§1) Minimum Inhibitory Concentrations (MICs) were assayed according to the
# (§2) dilution method disclosed in Chemotherapy 29(1), 76-79 (1981).
# [1] = test system: Escherichia coli NIH JC2 or Escherichia coli No. 29; experiment: Time and concentration required for 99% sterilization, both strains together (Experiment 2); format: cell-based; conditions: in words
# Protocol: Additionally, the bactericidal effects of CCL were compared with those of CEX through the following in vitro tests (details of the tests are described afterwards). The concentrations of CCL or CEX and the time which are needed for diminishing 99% of the inoculum size were measured (FIG. 2, Table 2).
# Heart infusion broth (Nissui Pharmaceutical Co.)
# The test microorganisms at the logarithmic growth phase (about 10^6 CFU/ml) were spread into the aforementioned broth placed in tubes, to which CCL or CEX was applied at prefixed serial concentrations. Changing in the number of viable microorganisms was monitored in order to measure the time required for 99% sterilization of the inoculum size in each tube.
# [2] = test system: Escherichia coli NIH JC-2; experiment: Minimum inhibitory concentration, Escherichia coli NIH JC-2 (Table 1); format: cell-based; conditions: NIHJC2, dilution method, Chemotherapy 29(1), 76-79 (1981)
# Protocol: as §1, §2
# [3] = relative to CEX; cited from earlier work
# [4] = test system: Staphylococcus aureus No. 1021; experiment: Susceptibility (MIC), Staphylococcus aureus No. 1021 (Table 3); format: cell-based
# Protocol: (§3) 1.56 μg/ml: The value was determined by the above-identified method, where Muller-Hinton agar (Difco) as the medium was employed. Method 1.
# (§4) The same procedures as in Experiment 3. were applied to the following strains. The following MIC values were also determined according to the same method as in Experiment 3.
# (§5) The values with *^1 or *^2 were determined by the method 1 or 2
# (§6) disclosed in Experiment 3, respectively.
# [5] = test system: Staphylococcus aureus No. 1037; experiment: Susceptibility (MIC) of Staphylococcus aureus No. 1037; format: cell-based
# Protocol: (2)Susceptibility of the test miocroorganisms (MIC value):
# as §3
# Escherichia coli ES-69 = experiment: Susceptibility (MIC), Escherichia coli ES-69 (Table 3); format: cell-based
# Protocol: as §3, §4, §5, §6
# [6] = set-up: species or system healthy and adult men (volunteers); conditions: human, in vivo, po
# Protocol: 250 mg Capsules of Keflex® (Shionogi & Co., (LTD-Lilly) as CEX and 250 mg capsules of Kefral® (Shionogi & Co., LTD-Lilly) as CCL were employed.
# The subjects, 12 healthy and adult men aged 21 to 39 years with 1.58 to 1.83 m^2 in the body surface area.
# To each subject after fasting, who had no meal after supper of the previous day, were given orally the capsules with 100 ml of warm water, and the fasting was continued for 2 hours, except giving them a prefixed amount of water. CEX and CCL were given to the 12 subjects in a cross-over method, and any drugs other than CEX or CCL were not applied for one week.
# The blood was collected 8 times, just before the administration, after 0.5, 0.75, 1, 1.5, 2, 3 and 6 hours. The plasma was centrifugally separated under cooling immediately after each collection, rapidly frozen and then preserved at -20° C. until the time of measurement.
# The measurement were made within a week after the collection. After the frozen samples were allowed to melt at 4° C., a series of ten-fold dilution was prepared with 0.1M of phosphate buffer (pH 6.0), on which the blood level was measured by a band culture method using Micrococcus luteus ATCC 9341 as standard. Antibiotic Medium No. 8 (Difco; hereinafter referred to as ABM 8) was employed as a medium.
# [7] = test system: Staphylococcus aureus No. 6; experiment: Susceptibility (MIC), Staphylococcus aureus No. 6 (Table 3); format: cell-based
# Protocol: as §3, §4, §5, §6
# Escherichia coli ES-80 = experiment: Susceptibility (MIC), Escherichia coli ES-80 (Table 3); format: cell-based
# Protocol: as §3, §4, §5, §6
# [8] = clinical use; cited from earlier work
# Escherichia coli ES-68 = experiment: Susceptibility (MIC), Escherichia coli ES-68 (Table 3); format: cell-based
# Protocol: as §3, §4, §5, §6
structure (smiles),measurement,setting,value
CC1=C(C(=O)O)N2C(=O)[C@@H](NC(=O)[C@H](N)c3ccccc3)[C@H]2SC1 [CEX],MIC,Escherichia coli No. 29,3.13 mg/L
same,concentration needed for diminishing 99% of the inoculum size,[1]; multiples of MIC,at least one MIC; also recorded: one or more MICs
same,MIC,[2],6.25 mg/L
"N[C@@H](C(=O)N[C@@H]1C(=O)N2C(C(=O)O)=C(Cl)CS[C@H]12)c1ccccc1 [CCL, 3-chloro-7-D-(2-phenylglycinamido)-3-cephem-4-carboxylic acid monohydrate]",antimicrobial spectrum compared with CEX,[3],broader spectrum
same,bactericidal action compared with CEX,[3],more potent bactericidal action than CEX
same,MIC,"[4]; NO.1021, 10^5 CFU/ml, Method 2",3.13 mg/L
same,MIC,"[4]; NO.1021, 10^6 CFU/ml, Method 1",1.56 mg/L
same,MIC,"[5]; NO.1037, Method 1, Muller-Hinton agar",1.56 mg/L
same,MIC,"[5]; NO.1037, Method 2, ABM 3 broth, 18 to 20 hours after inoculation (10^5 CFU/ml)",3.13 mg/L
same,MIC,"Escherichia coli ES-69; 10^5 CFU/ml, Method 2",3.13 mg/L
same,MIC,"Escherichia coli ES-69; Escherichia coli, ES69, 10^6 CFU/ml, Method 1, read-out: MIC",3.13 mg/L
same,MIC,Escherichia coli No. 29,1.56 mg/L
same,half-life compared with CEX,[6],half-life shorter
same,MIC,"[7]; NO.6, 10^5 CFU/ml, Method 2",6.25 mg/L
same,MIC,"[7]; NO.6, 10^6 CFU/ml, Method 1",3.13 mg/L
same,MIC,"Escherichia coli ES-80; ES80, 10^5 CFU/ml, Method 2",3.13 mg/L
same,MIC,"Escherichia coli ES-80; ES80, 10^6 CFU/ml, Method 1",1.56 mg/L
same,clinical effectiveness,[8],highly effective in clinical use
same,time required for 99% sterilization compared with CEX,"[1]; relative to CEX, monohydrate",within a shorter period of time than CEX; also recorded: much shorter at any MIC of 1/2 to about 64 than for CEX
same,MIC,[2],3.13 mg/L
same,MIC,"Escherichia coli ES-68; ES68, 10^5 CFU/ml, Method 2",3.13 mg/L
same,MIC,"Escherichia coli ES-68; ES68, 10^6 CFU/ml, Method 1",1.56 mg/L
